Results as given in patent publication EP0070171A1, “Novel piperidine derivatives, processes for preparation thereof and pharmaceutical compositions containing same” (KYOWA HAKKO KOGYO CO., LTD, priority 1981, dated 1983).

Experiments:
[1] = tested on: spontaneously hypertensive rats; assay: Hypotensive activity in spontaneously hypertensive rats (Experiment 1, tail artery plethysmography); format: in vivo; settings: maximum reduction after administration versus pressure before administration; oral, 3 mg/100 g body weight, suspended in 0.3% (W/V) CMC; SHR 15 weeks old, five rats per group
Experimental: This experiment was conducted according to the procedure described in "Spontaneously Hypertensive Rats (SHR) guidelines for Breeding, Care and Use" (published by SHR Conference) (1976) p.ll.
Five spontaneously hypertensive rats (15 weeks old, 180 mmHg or more in blood pressure) were used as one group. A test compound was suspended in 0.3% (W/V) CMC aqueous solution in a concentration of 3 mg/ml, and orally administered to the rats in a dose of 3 mg/100 g body weight. Changes in blood pressure were measured according to the method of tail artery plethysmography (see the literature cited above). The maximum reduction (mmHg) in blood pressure after the administration on the basis of the pressure before the administration is shown in Table 6.

[2] = Acute oral toxicity in mice (Experiment 2, deaths counted after 7 days); settings: mouse, in vivo, in aqueous physiological sodium chloride, doses 300 mg/kg or further 200, 100 or 1000 mg/kg, observation for 7 days, three or four mice per group, read-out: Dose of half being died
Experimental: Three or four male dd-strain mice (weight 18-20g) were used as one group.
Each of the compounds was added to aqueous physiological sodium chloride, and the mixture was orally administered to the mice in a dose of 300 mg/kg or further 200, 100 or 1000 mg/kg. After the observation for 7 days, the number of deaths were counted.

Compound	Reduction in blood pressure (mmHg) [1] [mmHg]	LD50 at 168 h [2] [mg/kg]
COc1ccc([C@@H](O)[C@H](C)N2CCC3(CC2)OC(=O)Nc2ccccc23)cc1OC (relative stereo) [Compound 26, erythro-l'-[2-(3,4-dimethoxyphenyl)-2-hydroxy-1-methylethyl]-(2-oxo-3,4-dihydro-2H-1,3-benzo-xazine-4-spiro-4'-piperidine)]	66	–
CN1C(=O)Nc2ccccc2C12CCN(CC(O)c1ccccc1)CC2 (stereo not shown) [Compound 11, l'-(2-phenyl-2-hydroxyethyl)-(3-methyl-3,4-dihydro-2(lH)-quinazolinone-4-spiro-4'-piperidine)]	47.5	200
COc1ccc(C(O)CN2CCC3(CC2)OC(=O)Nc2ccccc23)cc1OC (stereo not shown) [Compound 4, l'-[2-(3,4-dimethoxyphenyl)-2-hydroxyethyl]-(2-oxo-3,4-dihydro-2H-1,3-benzoxazine-4-spiro-4'-piperidine)]	95.0	> 1000
COc1cc(C(O)CN2CCC3(CC2)OC(=O)Nc2ccccc23)cc(OC)c1OC (stereo not shown) [Compound 32, l'-[2-(3,4,5-trimethoxyphenyl)-2-hydroxyethyl]-(2-oxo-3,4-dihydro-2H-1,3-benzoxazine-4-spiro-4'-piperidine)]	79	–
COc1cc([C@H](O)[C@H](C)N2CCC3(CC2)OC(=O)Nc2ccccc23)cc(OC)c1OC (relative stereo) [Compound 28]	70	–
COc1ccc(C(O)CN2CCC3(CC2)c2ccccc2NC(=O)N3C)cc1OC (stereo not shown) [Compound 12, l'-[2-(3,4-dimethoxyphenyl)-2-hydroxyethyl]-[3-methyl-3,4-dihydro-2(1H)-quinazolinone-4-spiro-4'-piperidine]]	35.0	100 to 300
COc1ccc([C@H](O)[C@H](C)N2CCC3(CC2)OC(=O)Nc2ccccc23)cc1OC (relative stereo) [Compound 25, threo-l'-[2-(3,4-dimethoxyphenyl)-2-hydroxy-1-methylethyl]-(2-oxo-3,4-dihydro-2H-1,3-benzoxazine-4-spiro-4'-piperidine)]	90	–
O=C1Nc2ccc(Cl)cc2C2(CCN(CC(O)c3ccc(Cl)cc3)CC2)O1 (stereo not shown) [Compound 8, l'-[2-(4-chlorophenyl)-2-hydroxyethyl]-(6-chloro-2-oxo-3,4-dihydro-2H-1,3-benzoxazine-4-spiro-4'-piperidine)]	67.5	> 300
COc1cc(OC)c([C@@H](O)[C@H](C)N2CCC3(CC2)OC(=O)Nc2ccccc23)cc1OC (relative stereo) [Compound 31, erythro-l'-[2-(3,4,6-trimethoxyphenyl)-2-hydroxy-1-methylethyl]-(2-oxo-3,4-dihydro-2H-1,3-benzo-xazine-4-spiro-4'-piperidine)]	75	–
O=C1Nc2ccccc2C2(CCN(CC(O)c3ccc(Cl)cc3)CC2)O1 (stereo not shown) [Compound 9]	43.7	> 300
O=C1Nc2ccccc2C2(CCN(CC(O)c3ccccc3)CC2)O1 (stereo not shown) [Compound 2, l'-(2-phenyl-2-hydroxyethyl)-(2-oxo-3,4-dihydro-2H-1,3-benzoxazine-4-spiro-4'-piperidine)]	46.3	> 300
O=C1Nc2ccc(Cl)cc2C2(CCN(CC(O)c3ccccc3)CC2)O1 (stereo not shown) [Compound 6, l'-(2-phenyl-2-hydroxyethyl)-(6-chloro-2-oxo-3,4-dihydro-2H-1,3-benzoxazine-4-spiro-4'-piperidine)]	66.3	–
CN1C(=O)Nc2ccccc2C12CCN(CC(O)c1ccc(Cl)cc1)CC2 (stereo not shown) [Compound 10]	20.0	–
